Test results taken from PubChem BioAssay AID2060503 (Molecular Pharmacology Branch, DTP, NCI, 2025).

System: 817829-284-R-J1-PDC complex spheroids, viability
Assay: Anticancer human tumor 817829-284-R-J1-PDC patient-derived colon adenocarcinoma cell line growth inhibition [GQUAD]
Conditions: for IC50: curve of first compound; for viability, T/C: stronger effect = lower value
How it was run: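 Tumor cells were grown as complex spheroids with HUVEC endothelial cells and mesenchymal stem cells as stroma. G-quadruplex stabilizers were combined with targeted agents over half-log dilutions from near the clinical Cmax, or from 10 microM.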

[1] = second compound 0.0316 µM, first compound 0.0316 µM
[2] = second compound 0.0316 µM, first compound 0.1 µM
[3] = second compound 0.0316 µM, first compound 0.316 µM
[4] = second compound 0.0316 µM, first compound 1 µM
[5] = second compound 0.0316 µM, first compound 3.16 µM
[6] = second compound 0.0316 µM, first compound 10 µM
[7] = second compound 0.1 µM, first compound 0.0316 µM
[8] = second compound 0.1 µM, first compound 0.1 µM
[9] = second compound 0.1 µM, first compound 0.316 µM
[10] = second compound 0.1 µM, first compound 1 µM
[11] = second compound 0.1 µM, first compound 3.16 µM
[12] = second compound 0.1 µM, first compound 10 µM
[13] = second compound 0.316 µM, first compound 0.0316 µM
[14] = second compound 0.316 µM, first compound 0.1 µM
[15] = second compound 0.316 µM, first compound 0.316 µM
[16] = second compound 0.316 µM, first compound 1 µM
[17] = second compound 0.316 µM, first compound 3.16 µM
[18] = second compound 0.316 µM, first compound 10 µM
[19] = second compound 1 µM, first compound 0.0316 µM
[20] = second compound 1 µM, first compound 0.1 µM
[21] = second compound 1 µM, first compound 0.316 µM
[22] = second compound 1 µM, first compound 1 µM
[23] = second compound 1 µM, first compound 3.16 µM
[24] = second compound 1 µM, first compound 10 µM
[25] = second compound 3.16 µM, first compound 0.0316 µM
[26] = second compound 3.16 µM, first compound 0.1 µM
[27] = second compound 3.16 µM, first compound 0.316 µM
[28] = second compound 3.16 µM, first compound 1 µM
[29] = second compound 3.16 µM, first compound 3.16 µM
[30] = second compound 3.16 µM, first compound 10 µM
[31] = second compound 10 µM, first compound 0.0316 µM
[32] = second compound 10 µM, first compound 0.1 µM
[33] = second compound 10 µM, first compound 0.316 µM
[34] = second compound 10 µM, first compound 1 µM
[35] = second compound 10 µM, first compound 3.16 µM
[36] = second compound 10 µM, first compound 10 µM
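Also: spheroids exposed to agents for 7 days before readout.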
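For viability, T/C in this document: percent viability relative to DMSO vehicle control taken as 100%.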

O=C(NO)c1cnc(N2CCN(S(=O)(=O)c3ccc4ccccc4c3)CC2)nc1 + CN(C)c1ccc(Nc2c3ccc(NC(=O)CCN4CCCC4)cc3nc3cc(NC(=O)CCN4CCCC4)ccc23)cc1
IC50 (second compound 0.0316 µM): 174 nM | IC50 (second compound 0.1 µM): 184 nM | IC50 (second compound 0.316 µM): 189 nM | IC50 (second compound 1 µM): 182 nM | IC50 (second compound 3.16 µM): 170 nM | IC50 (second compound 10 µM): 82.8 nM | viability, T/C [1]: 107% | viability, T/C [2]: 91.7% | viability, T/C [3]: 5.47% | viability, T/C [4]: 0.25% | viability, T/C [5]: 0.18% | viability, T/C [6]: 0.2% | viability, T/C [7]: 116% | viability, T/C [8]: 101% | viability, T/C [9]: 4.32% | viability, T/C [10]: 0.23% | viability, T/C [11]: 0.12% | viability, T/C [12]: 0.17% | viability, T/C [13]: 98.8% | viability, T/C [14]: 111% | viability, T/C [15]: 5.37% | viability, T/C [16]: 0.23% | viability, T/C [17]: 0.11% | viability, T/C [18]: 0.15% | viability, T/C [19]: 103% | viability, T/C [20]: 99.4% | viability, T/C [21]: 4.41% | viability, T/C [22]: 0.21% | viability, T/C [23]: 0.1% | viability, T/C [24]: 0.13% | viability, T/C [25]: 110% | viability, T/C [26]: 89.4% | viability, T/C [27]: 4.33% | viability, T/C [28]: 0.21% | viability, T/C [29]: 0.12% | viability, T/C [30]: 0.15% | viability, T/C [31]: 102% | viability, T/C [32]: 39.8% | viability, T/C [33]: 2.02% | viability, T/C [34]: 0.23% | viability, T/C [35]: 0.19% | viability, T/C [36]: 0.19%

Cc1cccc(N(C)C(=O)C2C(O)CCN2c2nc(C)cc(C(F)(F)F)c2C#N)c1 (stereo unspecified) + Cc1cnc(CNC(=O)c2c(=O)c3ccc(N4CCCN(C)CC4)nc3n3c2sc2ccccc23)cn1
IC50 (second compound 0.0316 µM): > 10000 nM | IC50 (second compound 0.1 µM): < 31.6 nM | IC50 (second compound 0.316 µM): < 31.6 nM | IC50 (second compound 1 µM): < 31.6 nM | IC50 (second compound 3.16 µM): < 31.6 nM | IC50 (second compound 10 µM): < 31.6 nM | viability, T/C [1]: 85.6% | viability, T/C [2]: 82.6% | viability, T/C [3]: 81.8% | viability, T/C [4]: 53.1% | viability, T/C [5]: 91.4% | viability, T/C [6]: 75% | viability, T/C [7]: 38.5% | viability, T/C [8]: 36.7% | viability, T/C [9]: 29.3% | viability, T/C [10]: 36.1% | viability, T/C [11]: 39.3% | viability, T/C [12]: 33.9% | viability, T/C [13]: 27.7% | viability, T/C [14]: 30.4% | viability, T/C [15]: 26.6% | viability, T/C [16]: 25.9% | viability, T/C [17]: 28.6% | viability, T/C [18]: 23% | viability, T/C [19]: 19.2% | viability, T/C [20]: 22.1% | viability, T/C [21]: 22.1% | viability, T/C [22]: 20.2% | viability, T/C [23]: 22.9% | viability, T/C [24]: 19.1% | viability, T/C [25]: 20.1% | viability, T/C [26]: 18.9% | viability, T/C [27]: 20.4% | viability, T/C [28]: 18.8% | viability, T/C [29]: 18% | viability, T/C [30]: 17.2% | viability, T/C [31]: 0.19% | viability, T/C [32]: 0.22% | viability, T/C [33]: 0.21% | viability, T/C [34]: 0.21% | viability, T/C [35]: 0.24% | viability, T/C [36]: 0.21%

O=C(NO)c1cnc(N2CCN(S(=O)(=O)c3ccc4ccccc4c3)CC2)nc1 + Cc1cnc(CNC(=O)c2c(=O)c3ccc(N4CCCN(C)CC4)nc3n3c2sc2ccccc23)cn1
IC50 (second compound 0.0316 µM): 53.3 nM | IC50 (second compound 0.1 µM): < 31.6 nM | IC50 (second compound 0.316 µM): < 31.6 nM | IC50 (second compound 1 µM): < 31.6 nM | IC50 (second compound 3.16 µM): < 31.6 nM | IC50 (second compound 10 µM): < 31.6 nM | viability, T/C [1]: 77.5% | viability, T/C [2]: 16.4% | viability, T/C [3]: 5.04% | viability, T/C [4]: 0.12% | viability, T/C [5]: 0.03% | viability, T/C [6]: 0.07% | viability, T/C [7]: 19.2% | viability, T/C [8]: 21.4% | viability, T/C [9]: 3.6% | viability, T/C [10]: 0.1% | viability, T/C [11]: 0.02% | viability, T/C [12]: 0.06% | viability, T/C [13]: 18.8% | viability, T/C [14]: 18.1% | viability, T/C [15]: 4.03% | viability, T/C [16]: 0.05% | viability, T/C [17]: 0.02% | viability, T/C [18]: 0.06% | viability, T/C [19]: 17.5% | viability, T/C [20]: 16.4% | viability, T/C [21]: 1.77% | viability, T/C [22]: 0.04% | viability, T/C [23]: 0.03% | viability, T/C [24]: 0.07% | viability, T/C [25]: 14.8% | viability, T/C [26]: 12.7% | viability, T/C [27]: 0.09% | viability, T/C [28]: 0.05% | viability, T/C [29]: 0.06% | viability, T/C [30]: 0.09% | viability, T/C [31]: 0.07% | viability, T/C [32]: 0.11% | viability, T/C [33]: 0.13% | viability, T/C [34]: 0.09% | viability, T/C [35]: 0.14% | viability, T/C [36]: 0.15%
